# Source: patent publication US20230390353A1, “PHARMACEUTICAL COMPOSITION FOR TREATING MYOCARDIAL ISCHEMIA AND PREPARATION METHOD THEREFOR” (TASLY PHARMACEUTICAL GROUP CO., LTD., priority 2021, published 2023)
# Tests used:
# myocardial Na^+—K^+-ATP = experiment: Energy metabolism related enzyme detection, myocardial Na+-K+-ATP activity; assay type: in vivo, SD rats; settings: myocardium of myocardial ischemia rats after treatment
# Text: (§1) 110 experimental animals were purchased, of which 10 animals were set as a sham-operation group, and 100 animals were used for modeling left anterior descending coronary artery ligation. After modeling, surviving rats were randomly divided into a vehicle control group, a traditional Chinese medicine group, a ranolazine group 1, a ranolazine group 2, a ranolazine group 3, a pharmaceutical composition group 1 of the present invention and a pharmaceutical composition group 2 of the present invention according to body weight. After therapeutic administration for 28 days, the rats from the vehicle control group were given the same amount of menstruum by gavage. On the 28th day of intragastric administration, 6 rats in each group were randomly selected for echocardiography. After intragastric administration of 60 min on Day 30, a weight-bearing swimming test was performed, and animal samples were taken after the end of weight-bearing swimming.
# [1] = test system: rats with myocardial ischemia; experiment: Weight-bearing swimming duration test in rats with myocardial ischemia; assay type: in vivo, SD rats; settings: gavage, Day 30, 60 min after dose, 5% load
# Text: as §1, with “swimming. After intragastric administration of 60 min on Day 30, the experimental animals were subjected to the weight-bearing swimming test. After weighing, the rats, fixed a 5% weight of its body weight on the tail were placed in a transparent container filled with water with an inner diameter of 19 cm and a water depth of 30 cm. The water temperature was 25±2° C. The rats swimming to exhaustion were judged by the standard of losing balance and the head submerged for more than 10 seconds. The time of swimming was recorded as the time of weight-bearing swimming.” for “swimming.”
# [2] = test system: rats with myocardial ischemia; experiment: Myocardial histopathology detection in rats with myocardial ischemia; assay type: in vivo, SD rats; settings: myocardial pathology
# Text: as §1, with “swimming. […] The administration of the pharmaceutical composition of the present invention could reduce myocardial fibrosis to varying degrees, causing a certain protective effect on the ischemic myocardium, and the effect of the pharmaceutical composition group 2 of the present invention was better.” for “swimming.”
# [3] = test system: myocardial Ca^2+—Mg^2+-ATP; experiment: Energy metabolism related enzyme detection, myocardial Ca2+-Mg2+-ATP activity; assay type: in vivo, SD rats; settings: myocardium of myocardial ischemia rats after treatment
# Text: as §1
# [4] = test system: rats with myocardial ischemia; experiment: Echocardiography (cardiac function) in rats with myocardial ischemia; assay type: in vivo, SD rats; settings: Day 28, 60 min after gavage
# Text: as §1, with “After” for “110 experimental animals were purchased, of which 10 animals were set as a sham-operation group, and 100 animals were used for modeling left anterior descending coronary artery ligation. After”, “swimming. After intragastric administration of 60 min on Day 28, 6 rats in each group were randomly selected, and the cardiac function was detected by a portable b-ultrasound instrument. The changes of cardiac ejection fraction (EF) and E/A were detected.” for “swimming.”
# normal mice = experiment: Weight-bearing swimming time in normal mice; assay type: in vivo; settings: normal BALB/c mice, 7 days pre-administration, 30 min after last administration, 5% body weight load; ranolazine 205 mg/kg, traditional Chinese medicine 68 mg/kg, composition 34 + ranolazine 102 mg/kg
# Protocol: According to the reference, 40 male mice are randomly divided into 4 groups (n=10): a normal group, a ranolazine group, a traditional Chinese medicine group and a pharmaceutical composition group of the present invention are administered in advance for 7 days, and the mice in the normal group are administered intragastrically with equivalent distilled water. Swimming tests are performed 30 min after the last administration. Mice are fixed a 5% weight of its body weight on the tail, and then placed in a large container filled with water of about 20 cm. Water should not be overfilled, so as to prevent mice from jumping out. The mice are forced to swim to exhaustion until they swim to death, and the time is recorded as the weight-bearing swimming time of the mice. See Table 5 for grouping and dose setting.
structure (smiles),measurement,setting,value
"COc1ccccc1OCC(O)CN1CCN(CC(=O)Nc2c(C)cccc2C)CC1 (racemic) [Ranolazine, (±)-N-(2,6-dimethylphenyl)-4-[2-hydroxy-3-(2-methoxyphenoxy)propyl]-1-piperazine acetamide]",Na^+—K^+-ATP,"myocardial Na^+—K^+-ATP; ranolazine group 1, 100 mg/kg",46.04 ± 8.57 µmol/h/g
same,Na^+—K^+-ATP,"myocardial Na^+—K^+-ATP; ranolazine group 2, 50 mg/kg",47.10 ± 6.57 µmol/h/g
same,Na^+—K^+-ATP,"myocardial Na^+—K^+-ATP; ranolazine group 3, 25 mg/kg",34.98 ± 9.26 µmol/h/g
same,Weight-bearing swimming duration,"[1]; ranolazine group 1, 100 mg/kg",1927 ± 1450 s
same,Weight-bearing swimming duration,"[1]; ranolazine group 2, 50 mg/kg",1268 ± 513 s
same,Weight-bearing swimming duration,"[1]; ranolazine group 3, 25 mg/kg",1108 ± 358 s
same,Basically normal (number of cases),"[2]; ranolazine group 1, 100 mg/kg",4 number of cases
same,Mild (cardiac muscle fiber partially replaced by collagen fiber),"[2]; ranolazine group 1, 100 mg/kg",1 number of cases
same,"Severe (decreased myocardial thickness, and occurrence of transmural myocardial infarction)","[2]; ranolazine group 1, 100 mg/kg",1 number of cases
same,Basically normal (number of cases),"[2]; ranolazine group 2, 50 mg/kg",3 number of cases
same,Mild (cardiac muscle fiber partially replaced by collagen fiber),"[2]; ranolazine group 2, 50 mg/kg",1 number of cases
same,"Severe (decreased myocardial thickness, and occurrence of transmural myocardial infarction)","[2]; ranolazine group 2, 50 mg/kg",2 number of cases
same,Basically normal (number of cases),"[2]; ranolazine group 3, 25 mg/kg",2 number of cases
same,Mild (cardiac muscle fiber partially replaced by collagen fiber),"[2]; ranolazine group 3, 25 mg/kg",2 number of cases
same,"Severe (decreased myocardial thickness, and occurrence of transmural myocardial infarction)","[2]; ranolazine group 3, 25 mg/kg",2 number of cases
same,Ca^2+—Mg^2+-ATP,"[3]; ranolazine group 1, 100 mg/kg",37.99 ± 8.20 µmol/h/g
same,Ca^2+—Mg^2+-ATP,"[3]; ranolazine group 2, 50 mg/kg",50.92 ± 6.18 µmol/h/g
same,Ca^2+—Mg^2+-ATP,"[3]; ranolazine group 3, 25 mg/kg",29.96 ± 7.66 µmol/h/g
same,E/A,"[4]; ranolazine group 1, 100 mg/kg",1.10 ± 0.09
same,Ejection Fraction (EF %),"[4]; ranolazine group 1, 100 mg/kg",55.32 ± 2.76 %
same,E/A,"[4]; ranolazine group 2, 50 mg/kg",1.06 ± 0.13
same,Ejection Fraction (EF %),"[4]; ranolazine group 2, 50 mg/kg",50.52 ± 2.15 %
same,E/A,"[4]; ranolazine group 3, 25 mg/kg",0.92 ± 0.08
same,Ejection Fraction (EF %),"[4]; ranolazine group 3, 25 mg/kg",45.03 ± 1.57 %
same,Swimming time,normal mice,3746 ± 1837 s
